These results are taken from US6653258B1 (priority 1987, dated 2003).

The structures appear in SMILES notation.

Data set [1] relates to Peanut plants, cv. Tomnut. Kind of data set: Phytotoxicity on peanut plants, root drench (Table VI). Format: in vivo. The settings on record: for phytotoxicity, linear 0-5 scale, Peanut: 100 ppm root drench, assessed one week after treatment, four replicates. The procedure:
Peanut plants, cv. Tomnut, were propagated in John Innes No. 1 compost. […] Uniform, 8-10 day-old plants were selected for the experiments.
Phytotoxicity was assessed on a linear 0- 5 scale where grade 1 ═slight damage and grade 5 ═dead plant.

The test system of data set [2] is Tomato plants, cv. Outdoor Girl. Kind of data set: Phytotoxicity on tomato plants, spray to maximum retention (Table VII). Conditions: for phytotoxicity, linear 0-5 scale, Tomato: assessed one week after treatment, four replicates.
In the next data set the test system is various species of plant. Kind of data set: Plant growth regulating whole plant screen (Table VIII). Format: in vivo. The settings on record: 4000 ppm (4 kg/ha) spray, assessed after 2-6 weeks. The procedure: This Example illustrates the plant growth regulating properties of compounds 1, 23 and 68 of Table I when tested on a whole plant screen against various species of plant. The plant species are identified in Table VII with the leaf stage at which they are sprayed.
A formulation of each chemical was applied at 4000 ppm (4 kg/ha in a 1000 l/ha field volume) using a tracksprayer and a SS8004E (Teejet) nozzle.
After spraying the plants were grown in a glasshouse with 25° C. day/22° C. night temperature. Supplementary lighting was supplied when necessary to provide an average photoperiod of 16 hours (14 hours minimum).
After 2-6 weeks in the glasshouse, depending on species and time of year, the plants were visually assessed for morphological characteristics against a control of plant sprayed with a blank formulation.

For data set [3], the system named is foliar fungal diseases of plants. The class given is in vivo. Also noted: key to disease control grading, […] (VINE): 4: no disease; 3: trace −5% of disease on untreated plants; key to disease control grading, PUCCINIA RECONDITA (WHEAT) / disease control grading, VENTURIA INAEQUALIS (APPLE) / disease control grading, CERCOSPORA ARACHIDICOLA (PEANUT) / disease control grading, PH[…] (TOMATO) / disease control grading, P[…] (RICE): 4: no disease; 3: trace −5% of disease on untreated plants; 6-25% of disease on untreated plants; 1: 26-59% of disease on untreated plants; 60-100% of disease on untreated plants. Conditions: applied to soil (roots) and foliage one or two days before inoculation; for disease control grading, CERCOSPORA ARACHIDICOLA (PEANUT): Cercospora arachidicola on peanut; for disease control grading, P[…] (RICE): P[…] on rice; for disease control grading, PH[…] (TOMATO): Ph[…] on tomato; for disease control grading, PUCCINIA RECONDITA (WHEAT): Puccinia recondita on wheat; for disease control grading, VENTURIA INAEQUALIS (APPLE): Venturia inaequalis on apple; for disease control grading, […] (VINE): […] on vine.

The next data set concerns Erysiphe graminis. The experiment in a line: Foliar fungal disease test on Erysiphe graminis, plants inoculated 24 hours before treatment (Table V). The class given is in vivo. Set-up: key: 4: no disease; 3: trace −5% of disease on untreated plants; 6-25% of disease on untreated plants; 1: 26-59% of disease on untreated plants; 60-100% of disease on untreated plants. The settings on record: plants inoculated 24 hours before treatment.

Where [4] appears, read: 30 ppm spray to maximum retention.
Setting [5] is: 100 ppm spray to maximum retention.
[6] abbreviates: 300 ppm spray to maximum retention.

`CO/C=C(/C(=O)OC)c1ccccc1COc1cccc(Cl)c1` [Compound 1, Table I]: the “phytotoxicity, linear 0-5 scale, Peanut” value in data set [1] came to 0. Also, the figures for the “phytotoxicity, linear 0-5 scale, Tomato” value in data set [2] (setting [4]), in data set [2] (setting [5]) and in data set [2] (setting [6]) were 0.75, 0.63 and 1.5, respectively.

As for `CO/C=C(/C(=O)OC)c1ccccc1COc1cccc(Cl)c1` [1 (Table I)], in the data set with various species of plant (Maize (MZ, Earliking)), the “G = Greening effect” value is given as 1 (1 = 10-30%), the “I = Interligular or internodal length reduction” value is 1 (1 = 10-30%) and the “R = Retardation” value is on record as 1 (1 = 10-30%). In the data set with various species of plant (Tomato (TO, Ailsa Craig)), the “A = Apical damage” value is 3 (3 = 61-100%), the “P = Phytotoxicity” value is 2 (2 = 11-30%), the “R = Retardation” value is 3 (3 = 61-100%) and the “T = Tillering or side shooting” value is listed as 1 (1 = 10-30%). In addition, in data set [3], the “disease control grading, CERCOSPORA ARACHIDICOLA (PEANUT)” value (“disease control grading … (PEANUT)” for short) was 4; the “disease control grading, P[…] (RICE)” value came to 4; the “disease control grading, PH[…] (TOMATO)” value was found to be 4; the “disease control grading, PUCCINIA RECONDITA (WHEAT)” value (“disease control grading … (WHEAT)” for short) came to 4. In data set [3], the “disease control grading, VENTURIA INAEQUALIS (APPLE)” value (from here on “disease control grading … (APPLE)”) came out at 4 and the “disease control grading, […] (VINE)” value is 4. In addition, in the data set on Erysiphe graminis, the “disease control grading, ERYSIPHE GRAMINIS (BARLEY)” value (“disease control grading … (BARLEY)” below) is reported as 4.

As for `CO/C=C(/C(=O)OC)c1ccccc1COc1ccccc1` [comparative compound, reference compound], the “phytotoxicity, linear 0-5 scale, Peanut” value in data set [1] came to 1.5. For the same compound, the “phytotoxicity, linear 0-5 scale, Tomato” value in data set [2] (setting [4]) was determined as 2.8; in data set [2] (setting [5]) it was 3.4; in data set [2] (setting [6]) it was 3.0.

Regarding `CO/C=C(/C(=O)OC)c1ccccc1COc1ccc(Cl)cc1` [Compound 23, Table I], the “phytotoxicity, linear 0-5 scale, Peanut” value in data set [1] stood at 0.13. Moreover, the “phytotoxicity, linear 0-5 scale, Tomato” value was found to be 0.3 in data set [2] (setting [4]), 1.5 in data set [2] (setting [5]) and 2.3 in data set [2] (setting [6]).

Regarding `CO/C=C(/C(=O)OC)c1ccccc1COc1cccnc1` [68 (Table I)], in the data set with various species of plant (Barley (BR, Atem)), the “T = Tillering or side shooting” value is reported as 1 (1 = 10-30%). In data set [3], the “disease control grading … (PEANUT)” value is reported as 3 (trace −5% of disease on untreated plants); the “disease control grading, P[…] (RICE)” value is reported as 3 (trace −5% of disease on untreated plants); the “disease control grading, PH[…] (TOMATO)” value is recorded as 3 (trace −5% of disease on untreated plants); the “disease control grading … (WHEAT)” value was 3 (trace −5% of disease on untreated plants). For the same compound, in data set [3], the “disease control grading … (APPLE)” value is on record as 4 and the “disease control grading, […] (VINE)” value stood at 4. Moreover, in the data set on Erysiphe graminis, the “disease control grading … (BARLEY)” value is on record as 4.

Regarding `CO/C=C(/C(=O)OC)c1ccccc1COc1cccc(Cl)c1` [Compound No. 1 of Table I, (E)-methyl 2-[2-(3-chlorophenoxymethyl)phenyl]-3-methoxypropenoate], the “phytotoxicity relative to the unsubstituted comparative compound” value is “less phytotoxic” in data set [1] (root drench, assessed one week after treatment (conclusion from Table VI)) and “less phytotoxic” in data set [2] (sprayed to maximum retention, assessed one week after (final) treatment (conclusion from Table VII)).

On to `CO/C=C(/C(=O)OC)c1ccccc1COc1ccc(Cl)cc1` [23 (Table I)], for which, in the data set on various species of plant (Tomato (TO, Ailsa Craig)), the “A = Apical damage” value was 3 (3 = 61-100%), the “P = Phytotoxicity” value was 3 (3 = 31-50%) and the “R = Retardation” value was 3 (3 = 61-100%). In addition, in data set [3], the “disease control grading … (PEANUT)” value was determined as 4; the “disease control grading, P[…] (RICE)” value is reported as 4; the “disease control grading, PH[…] (TOMATO)” value worked out at 4; the “disease control grading … (WHEAT)” value is 4. Further, in data set [3], the “disease control grading … (APPLE)” value is recorded as 4 and the “disease control grading, […] (VINE)” value is 4. The “disease control grading … (BARLEY)” value with Erysiphe graminis worked out at 4.
